ChEMBL document CHEMBL1153760, “Identification and structure-activity relationships of chromene-derived selective estrogen receptor modulators for treatment of postmenopausal symptoms” (J Med Chem, 2009)

Columns and labels:
Estrogen receptor [1] = target: T1, Estrogen receptor (Homo sapiens, UniProt P03372); test: Displacement of radiolabeled estrogen from estrogen receptor alpha by scintillation counting
T1 sequence (P03372 whole entry): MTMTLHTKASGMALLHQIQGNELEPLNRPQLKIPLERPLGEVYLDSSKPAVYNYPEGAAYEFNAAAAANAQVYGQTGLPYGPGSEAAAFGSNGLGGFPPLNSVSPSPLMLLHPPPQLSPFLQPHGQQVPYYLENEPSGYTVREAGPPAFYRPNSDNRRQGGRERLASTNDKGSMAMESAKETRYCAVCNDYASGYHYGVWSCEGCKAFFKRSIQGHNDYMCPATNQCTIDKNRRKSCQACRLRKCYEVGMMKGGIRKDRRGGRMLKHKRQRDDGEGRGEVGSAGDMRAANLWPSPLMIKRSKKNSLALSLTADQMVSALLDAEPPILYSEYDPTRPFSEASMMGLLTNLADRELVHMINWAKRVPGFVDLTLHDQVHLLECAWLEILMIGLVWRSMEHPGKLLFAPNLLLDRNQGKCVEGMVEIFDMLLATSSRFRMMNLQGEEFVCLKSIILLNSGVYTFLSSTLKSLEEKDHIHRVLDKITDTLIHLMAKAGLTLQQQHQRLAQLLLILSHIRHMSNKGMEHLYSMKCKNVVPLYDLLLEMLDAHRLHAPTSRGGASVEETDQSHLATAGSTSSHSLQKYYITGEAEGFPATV

Estrogen receptor [2] = target: T1, Estrogen receptor; test: Antagonist activity at estrogen receptor in human Ishikawa cells assessed as 17-beta-estradiol-induced alkaline phosphatase activity after 3 days by chemiluminescence assay; assay type: functional, cell-based
Estrogen receptor beta = Estrogen receptor beta (Homo sapiens, UniProt Q92731); test: Inhibition of fluormone ES2 binding to estrogen receptor beta after 1 hr by fluorescence polarization assay
Rattus norvegicus = species: Rattus norvegicus; test: animal or person; assay type: functional; conditions: Uterus, 72 h, route oral

Estrogen receptor beta, sequence (Q92731 whole entry): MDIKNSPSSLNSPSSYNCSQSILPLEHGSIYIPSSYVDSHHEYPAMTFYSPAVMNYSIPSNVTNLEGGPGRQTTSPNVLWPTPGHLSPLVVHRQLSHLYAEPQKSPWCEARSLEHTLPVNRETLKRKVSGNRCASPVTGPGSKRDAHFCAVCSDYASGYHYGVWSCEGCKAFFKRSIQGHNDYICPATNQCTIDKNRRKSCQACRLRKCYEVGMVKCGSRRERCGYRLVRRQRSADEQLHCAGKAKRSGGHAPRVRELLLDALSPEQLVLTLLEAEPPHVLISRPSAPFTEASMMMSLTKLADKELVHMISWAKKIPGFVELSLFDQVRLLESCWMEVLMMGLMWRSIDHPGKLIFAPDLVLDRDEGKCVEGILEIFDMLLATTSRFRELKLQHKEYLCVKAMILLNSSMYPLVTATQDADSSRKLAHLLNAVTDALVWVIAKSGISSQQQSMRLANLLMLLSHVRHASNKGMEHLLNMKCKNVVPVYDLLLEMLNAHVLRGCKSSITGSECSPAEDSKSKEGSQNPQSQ

Structure (SMILES) | IC50 (Estrogen receptor [1]) [nM] | IC50 (Estrogen receptor [2]) [nM] | IC50 (Estrogen receptor beta) [nM] | inhibition in vivo at 1 mg/kg (Rattus norvegicus) [%]
Oc1ccc2c(c1)OCCC1=C2[C@@H](c2ccc(OCCN3CCCCCC3)cc2)Oc2cc(F)ccc21 | 3.3 | 81 | 66 | 22
CCN(CC)CCOc1ccc([C@H]2Oc3cc(F)ccc3C3=C2c2ccc(O)cc2OCC3)cc1 | 5 | 113 | 108 | 80
Oc1ccc2c(c1)O[C@@H](c1ccc(OCCN3CCCCCC3)cc1)C1=C2CCOc2ccccc21 | 4 | 144 | 41 | 7
Oc1ccc2c(c1)O[C@@H](c1cccc(OCCN3CCSCC3)c1)C1=C2CCOc2cc(O)ccc21 | > 1000 | > 10000 | > 1000 | –
COc1ccc2c(c1)OCCC1=C2[C@H](c2ccc(OCCN3CCCCC3)cc2)Oc2cc(O)ccc21 | 4.2 | 150 | 24 | 20
Oc1ccc2c(c1)O[C@H](c1cccc(OCCN3CCCCC3)c1)C1=C2CCOc2cc(O)ccc21 | 150 | > 10000 | 380 | 0
Oc1ccc2c(c1)O[C@H](c1cccc(OCCN3CCSCC3)c1)C1=C2CCOc2cc(O)ccc21 | > 1000 | > 10000 | > 1000 | –
Oc1ccc2c(c1)O[C@@H](c1ccc(OCCN3CCCC3)cc1)C1=C2CCOc2cc(O)ccc21 | 2.5 | 165 | 8.7 | 20
Oc1ccc2c(c1)OC(c1ccc(OCCN3CCCCC3)cc1)C1=C2CCCOc2cc(O)ccc21 (single isomer, unassigned; (+)) | 23 | 121 | 77 | 33
Oc1ccc2c(c1)O[C@@H](c1cccc(OCCN3CCCCC3)c1)C1=C2CCOc2cc(O)ccc21 | 190 | > 10000 | 200 | 0
Oc1ccc2c(c1)O[C@@H](c1ccc(OCCCN3CCCCC3)cc1)C1=C2CCOc2cc(O)ccc21 | 55 | 590 | 19 | 15
CN1CCN(CCOc2cccc([C@H]3Oc4cc(O)ccc4C4=C3c3ccc(O)cc3OCC4)c2)CC1 | > 1000 | > 10000 | > 1000 | –
COc1ccc2c(c1)O[C@@H](c1ccc(OCCN3CCCCC3)cc1)C1=C2CCOc2cc(O)ccc21 | 6.3 | 25.9 | 63 | 12
CN(C)CCOc1ccc([C@H]2Oc3cc(O)ccc3C3=C2c2ccccc2OCC3)cc1 | 180 | 8990 | 205 | 23
CCN(CC)CCOc1ccc([C@@H]2Oc3cc(F)ccc3C3=C2c2ccc(O)cc2OCC3)cc1 | 7 | 122 | 11 | 11
COc1ccc2c(c1)O[C@@H](c1ccc(OCCN3CCCCC3)cc1)C1=C2CCOc2cc(OC)ccc21 | > 10000 | > 10000 | > 10000 | 7
Oc1ccc2c(c1)OCCC1=C2[C@H](c2ccc(OCCN3CCCCCC3)cc2)Oc2cc(F)ccc21 | 5 | 161 | 31 | 33
CCN(CC)CCOc1ccc([C@H]2Oc3ccccc3C3=C2c2ccc(O)cc2OCC3)cc1 | 5 | 113 | 108 | 80
Oc1ccc2c(c1)O[C@@H](c1ccc(OCCN3CCCCC3)cc1)C1=C2CCOc2ccccc21 | 6.3 | 25.9 | 63 | 12
Oc1ccc2c(c1)OCCC1=C2[C@H](c2ccc(OCCN3CCCCC3)cc2)Oc2ccccc21 | 4.2 | 150 | 24 | 20
CN1CCN(CCOc2cccc([C@@H]3Oc4cc(O)ccc4C4=C3c3ccc(O)cc3OCC4)c2)CC1 | > 1000 | > 10000 | > 1000 | –
Oc1ccc2c(c1)OCCC1=C2[C@H](c2ccc(OCCN3CCCCCC3)cc2)Oc2ccccc21 | 4.5 | 68 | 22 | 28
CN1CCN(CCOc2ccc([C@H]3Oc4cc(O)ccc4C4=C3c3ccc(O)cc3OCC4)cc2)CC1 | 8.7 | 90 | 86 | 30
Oc1ccc2c(c1)O[C@H](c1ccc(OCCN3CCCC3)cc1)C1=C2CCOc2cc(O)ccc21 | 1.2 | 10 | 14 | 10
CN1CCN(CCOc2ccc([C@@H]3Oc4cc(O)ccc4C4=C3c3ccc(O)cc3OCC4)cc2)CC1 | 312 | > 10000 | 580 | 5
Oc1ccc2c(c1)OCCC1=C2[C@@H](c2ccc(OCCN3CCCCC3)cc2)Oc2ccccc21 | 5.8 | 76 | 99 | 130
Oc1ccc2c(c1)OCCC1=C2[C@@H](c2ccc(OCCN3CCCCCC3)cc2)Oc2ccccc21 | 11 | 293 | 125 | 110
Oc1ccc2c(c1)O[C@H](c1ccc(OCCN3CCOCC3)cc1)C1=C2CCOc2cc(O)ccc21 | 1.6 | 43 | 35 | 40
Oc1ccc2c(c1)O[C@H](c1ccc(OCCN3CCCCCC3)cc1)C1=C2CCOc2ccccc21 | 85 | 2670 | 140 | 11

Second part, led by results:

IC50 (Estrogen receptor [1]) [nM] | IC50 (Estrogen receptor [2]) [nM] | IC50 (Estrogen receptor beta) [nM] | Structure (SMILES) | inhibition in vivo at 1 mg/kg (Rattus norvegicus) [%]
580 | > 10000 | 44 | O=C(O)CCOc1ccc([C@@H]2Oc3cc(O)ccc3C3=C2c2ccc(O)cc2OCC3)cc1 | 0
– | – | 19 | Oc1ccc2c(c1)O[C@H](c1ccc(OCCN3CCCCCC3)cc1)C1=C2CCOc2cc(O)ccc21 | 60
310 | > 10000 | 11 | OCCOc1ccc(C2Oc3cc(O)ccc3C3=C2c2ccc(O)cc2OCC3)cc1 (stereo not drawn) | 0
41 | > 10000 | 5.68 | O=C1CCC(=O)N1CCCOc1ccc([C@@H]2Oc3cc(O)ccc3C3=C2c2ccc(O)cc2OCC3)cc1 | 0
4.8 | > 10000 | 16 | COC(=O)COc1ccc(C2Oc3cc(O)ccc3C3=C2c2ccc(O)cc2OCC3)cc1 (stereo not drawn) | 0
120 | > 10000 | 250 | O=C(O)CCOc1ccc([C@H]2Oc3cc(O)ccc3C3=C2c2ccc(O)cc2OCC3)cc1 | 0
6.2 | > 10000 | 18.6 | O=C1CCC(=O)N1CCOc1ccc([C@@H]2Oc3cc(O)ccc3C3=C2c2ccc(O)cc2OCC3)cc1 | 0
4.8 | > 10000 | 0.64 | O=C1CCC(=O)N1CCOc1ccc([C@H]2Oc3cc(O)ccc3C3=C2c2ccc(O)cc2OCC3)cc1 | 0
3.3 | 61 | 23 | CN(C)CCOc1ccc([C@H]2Oc3cc(O)ccc3C3=C2c2ccc(O)cc2OCC3)cc1 | 25
11.1 | 158 | 30 | CN(C)CCOc1ccc([C@@H]2Oc3cc(O)ccc3C3=C2c2ccccc2OCC3)cc1 | 20
– | – | 13.4 | Oc1ccc2c(c1)O[C@@H](c1ccc(OCCN3CCCCCC3)cc1)C1=C2CCOc2cc(O)ccc21 | 50
3.4 | 32 | 16 | Oc1ccc2c(c1)O[C@@H](c1ccc(OCCN3CCCCC3)cc1)C1=C2CCOc2cc(O)ccc21 | 88
326 | > 10000 | 44 | OCCCOc1ccc(C2Oc3cc(O)ccc3C3=C2c2ccc(O)cc2OCC3)cc1 (stereo not drawn) | 0
2.63 | > 10000 | 12.7 | O=C1CCC(=O)N1CCCOc1ccc([C@H]2Oc3cc(O)ccc3C3=C2c2ccc(O)cc2OCC3)cc1 | 0
111 | > 10000 | 390 | Oc1ccc2c(c1)O[C@@H](c1ccc(OCCN3CCSCC3)cc1)C1=C2CCOc2cc(O)ccc21 | 0
– | – | 105 | CN(C)CCOc1ccc([C@H]2Oc3ccccc3C3=C2c2ccc(O)cc2OCC3)cc1 | 55
5.4 | 287 | 20 | CC(C)N(CCOc1ccc([C@H]2Oc3cc(O)ccc3C3=C2c2ccc(O)cc2OCC3)cc1)C(C)C | 30
13 | 8 | 31 | Oc1ccc2c(c1)OC(c1ccc(OCCN3CCCCC3)cc1)C1=C2CCOc2cc(O)ccc21 (stereo not drawn) | 77
